Data on one compound can be found in patent US8697939B2, “Mouse model for depression, schizophrenia and alzheimer's disease and the use thereof” (National Yang Ming University, priority 2009, dated 2014).

The subject of one assay is GNMT knockout mice. The assay is described as follows: Prepulse inhibition (PPI) of acoustic startle reflex in drug-treated GNMT knockout mice. It counts as in vivo, mouse. As for the experimental part:
The apparatus consisted of two startle chambers (Med Associates, Georgia, Vt.). One mouse selected from the WT control group and the other selected from GNMT deficient group were tested simultaneously. Each mouse was put into the PPI chamber for a 5-min acclimatization period with a […] background noise. Following this period, 10 startle pulses (120 dB, 40 ms duration) were presented with an average inter-trial interval of 15 s. Then, no stimulus (background noise, 68 dB), prepulses alone (72, 76 and 84 dB, 20 ms duration), startle pulses alone, and prepulses followed 80 ms later by startle pulses were presented six times randomly distributed over the next 20 min. […]
In view of the observed deficits in prepulse inhibition (PPI) of the acoustic startle reflex in GNMT knockout mice, we administered clozapine (a […] anti-schizophrenic drug, 1 mg/kg) to the GNMT knockout mice, and evaluated the therapeutic effects on schizophrenia. […]
Another hypothesis of schizophrenia pathology is that neuropsychiatric disorder may be associated with the dysfunction of N-methyl-D-aspartate (NMDA) receptor, a glutamate receptor. […] Therefore, in a further experiment, sarcosine (100 mg/kg) is administered to the GNMT knockout mice, and evaluated its therapeutic effects on schizophrenia.

The target of the next assay is T1, glycine transporter-1 (Homo sapiens, UniProt P48067).
T1 construct: host or cells: human patients (endogenous transporter)
T1 sequence (P48067 1-706): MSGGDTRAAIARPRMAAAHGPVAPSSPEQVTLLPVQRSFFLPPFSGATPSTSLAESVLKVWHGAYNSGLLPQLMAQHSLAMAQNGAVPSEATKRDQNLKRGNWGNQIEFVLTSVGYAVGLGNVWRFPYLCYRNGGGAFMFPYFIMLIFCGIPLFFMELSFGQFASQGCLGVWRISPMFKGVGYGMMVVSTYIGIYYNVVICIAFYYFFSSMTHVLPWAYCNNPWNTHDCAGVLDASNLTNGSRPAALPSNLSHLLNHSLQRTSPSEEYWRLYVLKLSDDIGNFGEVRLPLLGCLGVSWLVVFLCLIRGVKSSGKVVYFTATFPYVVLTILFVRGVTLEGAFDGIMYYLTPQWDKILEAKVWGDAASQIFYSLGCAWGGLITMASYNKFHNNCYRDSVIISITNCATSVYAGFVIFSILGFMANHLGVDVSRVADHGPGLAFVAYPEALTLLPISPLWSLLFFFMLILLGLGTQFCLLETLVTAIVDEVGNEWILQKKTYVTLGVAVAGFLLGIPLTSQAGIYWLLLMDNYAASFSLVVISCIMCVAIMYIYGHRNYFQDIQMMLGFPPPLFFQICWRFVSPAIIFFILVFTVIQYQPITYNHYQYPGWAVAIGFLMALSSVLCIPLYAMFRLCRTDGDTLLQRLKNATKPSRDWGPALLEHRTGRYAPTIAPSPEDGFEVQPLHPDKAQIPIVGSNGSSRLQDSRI
Particulars: clinical studies, supplement of sarcosine; cited from earlier work.

The conditions of assay [1]: phase II clinical trials; cited from earlier work.

SMILES strings stand for the structures. Entries after “also recorded” stand apart in the source; their conditions may differ.

For `CNCC(=O)O` [sarcosine], the “level of startle amplitude” value in the assay with GNMT knockout mice (sarcosine 100 mg/kg (FIG. 10)) is “unaffected”. In addition, the “percent PPI of ASR” value in the assay on GNMT knockout mice (sarcosine 100 mg/kg, compared with solvent control (FIG. 11)) was “significantly induced PPI; also recorded: significantly ameliorated deficits in prepulse inhibition”. Also, on glycine transporter-1, the symptoms of schizophrenia result is “can improve the symptoms of schizophrenia”. Also, the symptoms of depression result in assay [1] was “effective to ameliorate symptoms of depression”.
